# Reference: patent publication US6602897B2, “m-Amino-phenylimino-imidazolidine derivatives for treating urinary incontinence” (Boehringer Ingelheim Pharma KG, priority 2000, dated 2003)
# Counter-ions that a name gives are not always drawn.
# How the values were obtained:
# dog = test: Efficacy: maximum contraction in the dog compared with noradrenalin; settings: percentage of contraction compared with noradrenalin
# Method: (§1) The efficacy and selectivity of the compounds is determined as follows:
# (§2) The maximum contraction in the dog and the activity on the human urethra are given as percentages of contraction compared with noradrenalin. Selectivity in the dog: percentage contraction on the femoral artery in the dog at 10^−5 M—percentage contraction on the carotid artery in the dog at 10^−5 M.
# Human Urethra = test: Efficacy: activity on the human urethra, contraction compared with noradrenalin; settings: percentage of contraction compared with noradrenalin
# Method: as §1, §2
# HLM = test: Metabolism: breakdown of test substance by HLM; assay type: in vitro ADME
# Method: The rate of breakdown under the effect of the enzyme HLM/60 minutes is tested analogously.
# CYP2D6 = CYP2D6 (Homo sapiens, UniProt P10635); test: Metabolism: breakdown of test substance by enzyme CYP2D6; assay type: in vitro ADME
# Sequence of CYP2D6 (P10635 whole entry): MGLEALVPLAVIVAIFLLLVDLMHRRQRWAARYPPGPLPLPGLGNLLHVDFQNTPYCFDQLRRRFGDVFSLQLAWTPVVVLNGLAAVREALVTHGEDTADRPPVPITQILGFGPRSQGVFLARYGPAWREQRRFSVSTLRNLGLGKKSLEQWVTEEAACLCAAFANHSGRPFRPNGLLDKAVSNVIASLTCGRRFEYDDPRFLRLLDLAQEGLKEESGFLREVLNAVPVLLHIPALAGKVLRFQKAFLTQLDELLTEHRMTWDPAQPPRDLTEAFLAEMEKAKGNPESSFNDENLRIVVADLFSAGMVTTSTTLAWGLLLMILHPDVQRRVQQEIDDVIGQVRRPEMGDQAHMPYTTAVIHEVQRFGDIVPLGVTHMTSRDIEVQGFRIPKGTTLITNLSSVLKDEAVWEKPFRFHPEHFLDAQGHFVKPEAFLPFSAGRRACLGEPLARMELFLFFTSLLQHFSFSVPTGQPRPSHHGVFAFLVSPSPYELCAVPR
# Method: To determine the metabolism, the enzyme CYP2D6 was allowed to act on the test substances. After 30 minutes, a check was made to see how much of the test substance put in had been broken down by the enzyme.
# [1] = tested on: femoral artery in the dog / carotid artery in the dog; test: Selectivity in the dog: contraction on femoral artery vs carotid artery; settings: percentage contraction on femoral artery at 10^-5 M — percentage contraction on carotid artery at 10^-5 M
# Method: as §1, §2
# [2] = Bioavailability after oral vs intravenous administration to fasted male rats, plasma HPLC; assay type: in vivo; settings: rat, oral compared with intravenous, pooled plasma by HPLC
# Method: In order to determine bioavailability, the test substances were administered orally to a group of 8 male rats which had been fasted. As a comparison, the test substances were administered intravenously to animals in an identical second group. 1 ml blood samples were taken from the animals of both groups at specified times after administration (10 minutes, 30 minutes, 1 hour, 2 hours, and 4 hours, and additionally after 6 hours in the case of the animals treated by oral route). The blood samples taken in each group were mixed together (8 ml). After further working up, the content of the test substances in the blood for the particular time was determined from the plasma by HPLC (High Performance Liquid Chromatography) using standard methods and compared for the two groups.
Structure (SMILES),melting point,Activity in the Dog (maximum contraction) (dog),Activity on Human Urethra (Human Urethra),Breakdown of Substrate after 60 minutes' Incubation with HLM (HLM),% Breakdown of Substrate after 30 minutes' Incubation with CYP2D6 (CYP2D6),Selectivity in the Dog [1],bioavailability [2]
"Cc1c(N(C)C)cc(Cl)c(Br)c1NC1=NCCN1 (as salt: hydrochloride) [Compound 1, 2′-Bromo-3′-chloro-5′-dimethylamino-6′-methylphen-1′-yl-2-iminoimidazolidine]",239 to 240 °C,–,–,–,–,–,–
"Cc1c(N(C)C)cc(Cl)c(Br)c1NC1=NCCN1 [Compound 1, 2′-Bromo-3′-chloro-5′-dimethylamino-6′-methylphen-1′-yl-2-iminoimidazolidine]",–,109%,100%,32.1,40.5%,0.92,–
"CN(C)c1cccc(NC2=NCCN2)c1Cl [Compound 6, 2′-chloro-3′-dimethylaminophen-1′-yl-2-iminoimidazolidine]",146 to 148 °C,–,–,7.4,–,–,–
CN(C)c1ccc(Br)c(NC2=NCCN2)c1Cl,142 to 145 °C,–,–,–,–,–,–
"Cc1c(NC2=NCCN2)cc(Cl)cc1N(C)C [Compound 4, 3′-chloro-5′-dimethylamino-6′-methylphen-1′-yl-2-iminoimidazolidine]",–,116%,137%,17.1,36.5%,0.99,11%
"Cc1c(N(C)C)cc(Br)c(Br)c1NC1=NCCN1 [Compound 5, 2′-3′-dibromo-5′-dimethylamino-6′-methylphen-1′-yl-2-iminoimidazolidine]",–,89%,113%,22.0,22.2%,0.71,0.8%
"Cc1c(NC2=NCCN2)cc(Br)cc1N(C)C [Compound 3, 3′-bromo-5′-dimethylamino-6′-methylphen-1′-yl-2-iminoimidazolidine]",140 to 143 °C,87%,72%,17.0,33.9%,0.76,–
"CN(C)c1c(Br)ccc(NC2=NCCN2)c1Cl [Compound 7, 4′-bromo-2′-chloro-3′-dimethylaminophen-1′-yl-2-iminoimidazolidine]",150 to 155 °C,–,–,55.8,46.4%,–,–
